Activity data for two compounds are collected here from ChEMBL document CHEMBL2073919, “cDNA cloning and functional characterization of rat intestinal monocarboxylate transporter” (Biochem Biophys Res Commun, 1995).

This test has as its target T1, Monocarboxylate transporter 1 (Rattus norvegicus) (UniProt P53987).
T1 sequence (whole entry): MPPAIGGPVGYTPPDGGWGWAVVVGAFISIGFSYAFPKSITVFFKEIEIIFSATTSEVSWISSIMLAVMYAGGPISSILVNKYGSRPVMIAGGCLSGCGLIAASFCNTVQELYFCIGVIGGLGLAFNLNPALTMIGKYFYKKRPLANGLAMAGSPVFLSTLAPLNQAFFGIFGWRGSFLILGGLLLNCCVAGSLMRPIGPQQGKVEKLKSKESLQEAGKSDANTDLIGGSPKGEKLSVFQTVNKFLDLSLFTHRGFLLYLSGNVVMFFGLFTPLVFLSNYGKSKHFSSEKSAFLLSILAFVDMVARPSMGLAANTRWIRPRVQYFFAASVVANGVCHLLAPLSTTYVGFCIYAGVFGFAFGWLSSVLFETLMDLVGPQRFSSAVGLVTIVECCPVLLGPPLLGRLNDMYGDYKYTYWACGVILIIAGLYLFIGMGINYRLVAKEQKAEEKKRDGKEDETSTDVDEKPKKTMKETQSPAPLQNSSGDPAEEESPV
Briefly: TP_TRANSPORTER: uptake in Xenopus laevis oocytes. The class given is functional, cell-based. To be noted: Oocyte.

As for `C[C@@H](O)C(=O)O`, the Activity result was “substrate [+]”.
Take `C[C@H](O)C(=O)O`: the Activity result was “substrate [+]”.
